Measured values as given in US6274715A, “Tricyclic erythromycin derivatives” (priority 1997, dated 2001).
Values after ≈ are worked out from the molar mass of the structure shown.

What was measured:
Type in all cases: cell-based
[1] = test system: PSEUDOMONAS AERUGINOSA K799/WT; assay: In vitro antibacterial activity, MIC, BHI agar dilution; details: P. aeruginosa K799/WT, unit assumed
[2] = test system: STAPHYLOCOCCUS AUREUS CMX 553; assay: as above; details: S. aureus CMX 553, unit assumed
ESCHERICHIA COLI H560 = assay: as above; details: E. coli H560, unit assumed
[3] = test system: STAPHYLOCOCCUS AUREUS NCTC10649M; assay: as above; details: S. aureus NCTC10649M, unit assumed
[4] = test system: PROVIDENCIA STUARTII CMX 640; details: P. stuartii CMX 640; BHI agar; unit assumed
[5] = test system: STREPTOCOCCUS PYOGENES PIU 2548; assay: In vitro antibacterial activity, MIC, BHI agar dilution; details: S. pyogenes PIU 2548, unit assumed
[6] = test system: STAPHYLOCOCCUS AUREUS CMX 642A; assay: as above; details: S. aureus CMX 642A, unit assumed
[7] = test system: STREPTOCOCCUS PYOGENES 930; assay: as above; details: S. pyogenes 930, unit assumed
[8] = test system: STAPHYLOCOCCUS AUREUS A-5278; assay: as above; details: S. aureus A-5278, unit assumed
CANDIDA ALBICANS CCH 442 = assay: as above; details: C. albicans CCH 442, unit assumed
[9] = test system: PSEUDOMONAS AERUGINOSA K799/61; assay: as above; details: P. aeruginosa K799/61, unit assumed
PSEUDOMONAS CEPACIA 296I = assay: as above; details: P. cepacia 296I, unit assumed
ESCHERICHIA COLI KNK 437 = details: E. coli KNK 437; BHI agar; unit assumed
[10] = test system: STREPTOCOCCUS PYOGENES EES61; assay: In vitro antibacterial activity, MIC, BHI agar dilution; details: S. pyogenes EES61, unit assumed
[11] = test system: ENTEROBACTER AEROGENES ATCC 13048; assay: as above; details: E. aerogenes ATCC 13048, unit assumed
[12] = test system: PSEUDOMONAS AERUGINOSA DPHD-2862; assay: as above; details: P. aeruginosa DPHD-2862, unit assumed
[13] = test system: STAPHYLOCOCCUS AUREUS A5177; assay: as above; details: S. aureus A5177, unit assumed
ESCHERICHIA COLI SS = assay: as above; details: E. coli SS, unit assumed
[14] = test system: PSEUDOMONAS AERUGINOSA BMH10; assay: as above; details: P. aeruginosa BMH10, unit assumed
M[…] ATCC 4698 = assay: as above; details: M. luteus ATCC 4698, unit assumed
Summary of the method: (§1)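 BHI agar dilution: twelve plates with successive compound dilutions, inoculated by replicator with 1:100 culture dilutions (1:10 for slow growers such as Micrococcus and Streptococcus), 20 to 24 hours at 35-37° C. MIC was the lowest concentration giving no growth, slight haze or sparse isolated colonies versus drug-free control; erythromycin A as class reference.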

M[…] ATCC 9341 = assay: as above; details: M. luteus ATCC 9341, unit assumed
Summary of the method: as §1

EN[…] ATCC 8043 = assay: as above; details: E. faecium ATCC 8043, unit assumed
Summary of the method: as §1

STR[…] 508 = assay: as above; details: S. agalactiae CMX 508, unit assumed
Summary of the method: as §1

ESCHERICHIA COLI JUHL = details: E. coli JUHL; BHI agar; unit assumed
[15] = test system: STAPHYLOCOCCUS EPIDERMIDIS 3519; details: S. epidermidis 3519; BHI agar; unit assumed
[16] = test system: PSEUDOMONAS AERUGINOSA DPHD-5263; assay: In vitro antibacterial activity, MIC, BHI agar dilution; details: P. aeruginosa DPHD-5263, unit assumed
ESCHERICHIA COLI DC-2 = assay: as above; details: E. coli DC-2, unit assumed
[17] = test system: STAPHYLOCOCCUS AUREUS 1775; assay: as above; details: S. aureus 1775, unit assumed
[18] = test system: MYCOBACTERIUM SMEGMATIS ATCC 114; assay: as above; details: M. smegmatis ATCC 114, unit assumed
[19] = test system: STREPTOCOCCUS BOVIS A-5169; assay: as above; details: S. bovis A-5169, unit assumed
[20] = test system: KLEBSIELLA PNEUMONIAE ATCC 8045; assay: as above; details: K. pneumoniae ATCC 8045, unit assumed
[21] = test system: STAPHYLOCOCCUS AUREUS ATCC 6538P; assay: as above; details: S. aureus ATCC 6538P, 35-37° C., 20 to 24 hours, unit assumed
[22] = test system: PSEUDOMONAS AERUGINOSA 5007; assay: as above; details: P. aeruginosa 5007, unit assumed

| Structure (SMILES) | MIC [1] [µg/mL] | MIC [2] [µg/mL] | MIC (ESCHERICHIA COLI H560) [µg/mL] | MIC [3] [µg/mL] | MIC [4] [µg/mL] | MIC [5] [µg/mL] | MIC [6] [µg/mL] | MIC [7] [µg/mL] | MIC [8] [µg/mL] | MIC (CANDIDA ALBICANS CCH 442) [µg/mL] | MIC [9] [µg/mL] | MIC (PSEUDOMONAS CEPACIA 296I) [µg/mL] | MIC (ESCHERICHIA COLI KNK 437) [µg/mL] | MIC [10] [µg/mL] | MIC [11] [µg/mL] | MIC [12] [µg/mL] | MIC [13] [µg/mL] | MIC (ESCHERICHIA COLI SS) [µg/mL] | MIC [14] [µg/mL] | MIC (M[…] ATCC 4698) [µg/mL] | further results |
| --- | --- | --- | --- | --- | --- | --- | --- | --- | --- | --- | --- | --- | --- | --- | --- | --- | --- | --- | --- | --- | --- |
| CC[C@H]1OC(=O)[C@H](C)C(=O)[C@H](C)[C@@H](O[C@@H]2O[C@H](C)C[C@H](N(C)C)[C@H]2O)[C@](C)(OC)C[C@@H](C)C2=NC3CN(C=O)CC3N3C(=O)O[C@@]1(C)[C@H]3[C@H]2C (stereo partly drawn) [Example 124] | 100 (≈ 141 µM) | 0.78 (≈ 1.1 µM) | 50 (≈ 70.7 µM) | 0.78 (≈ 1.1 µM) | > 100 | 3.1 (≈ 4.39 µM) | 0.78 (≈ 1.1 µM) | > 100 | > 100 | > 100 | 0.78 (≈ 1.1 µM) | > 100 | 100 (≈ 141 µM) | 0.02 (≈ 0.0283 µM) | > 100 | > 100 | 1.56 (≈ 2.21 µM) | 0.78 (≈ 1.1 µM) | > 100 | 0.39 (≈ 0.552 µM) | MIC (M[…] ATCC 9341): 0.1 µg/mL (≈ 0.141 µM); MIC (EN[…] ATCC 8043): 0.2 µg/mL (≈ 0.283 µM); MIC (STR[…] 508): 0.1 µg/mL (≈ 0.141 µM); MIC (ESCHERICHIA COLI JUHL): 100 µg/mL (≈ 141 µM); MIC [15]: 3.1 µg/mL (≈ 4.39 µM); MIC [16]: > 100 µg/mL; MIC (ESCHERICHIA COLI DC-2): 100 µg/mL (≈ 141 µM); MIC [17]: > 100 µg/mL; MIC [18]: 25 µg/mL (≈ 35.4 µM); MIC [19]: 0.05 µg/mL (≈ 0.0707 µM); MIC [20]: > 100 µg/mL; MIC [21]: 0.78 µg/mL (≈ 1.1 µM); MIC [22]: > 100 µg/mL |
| CC[C@H]1OC(=O)[C@H](C)C(=O)[C@H](C)[C@@H](O[C@@H]2O[C@H](C)C[C@H](N(C)C)[C@H]2O)[C@](C)(OC)C[C@@H](C)C2=NC3CN(CC(OC)OC)CC3N3C(=O)O[C@@]1(C)[C@H]3[C@H]2C (stereo partly drawn) [Example 127] | > 100 | 1.56 (≈ 2.03 µM) | > 100 | 1.56 (≈ 2.03 µM) | > 100 | 1.56 (≈ 2.03 µM) | 3.1 (≈ 4.04 µM) | > 100 | > 100 | > 100 | 3.1 (≈ 4.04 µM) | > 100 | > 100 | 0.1 (≈ 0.13 µM) | > 100 | > 100 | 1.56 (≈ 2.03 µM) | 1.56 (≈ 2.03 µM) | > 100 | 1.56 (≈ 2.03 µM) | MIC (M[…] ATCC 9341): 0.39 µg/mL (≈ 0.508 µM); MIC (EN[…] ATCC 8043): 0.39 µg/mL (≈ 0.508 µM); MIC (STR[…] 508): 0.2 µg/mL (≈ 0.261 µM); MIC (ESCHERICHIA COLI JUHL): > 100 µg/mL; MIC [15]: 1.56 µg/mL (≈ 2.03 µM); MIC [16]: > 100 µg/mL; MIC (ESCHERICHIA COLI DC-2): > 100 µg/mL; MIC [17]: > 100 µg/mL; MIC [18]: 25 µg/mL (≈ 32.6 µM); MIC [19]: 0.1 µg/mL (≈ 0.13 µM); MIC [20]: > 100 µg/mL; MIC [21]: 3.1 µg/mL (≈ 4.04 µM); MIC [22]: > 100 µg/mL |
| CC[C@H]1OC(=O)[C@H](C)C(=O)[C@H](C)[C@@H](O[C@@H]2O[C@H](C)C[C@H](N(C)C)[C@H]2O)[C@](C)(OC)C[C@@H](C)C2=NCC(CN(C)Cc3ccccc3)N3C(=O)O[C@@]1(C)[C@H]3[C@H]2C (stereo partly drawn) [Example 132] | 100 (≈ 130 µM) | 0.39 (≈ 0.506 µM) | 50 (≈ 64.9 µM) | 0.39 (≈ 0.506 µM) | > 100 | 0.78 (≈ 1.01 µM) | 0.39 (≈ 0.506 µM) | 50 (≈ 64.9 µM) | 100 (≈ 130 µM) | > 100 | 1.56 (≈ 2.02 µM) | > 100 | > 100 | 0.02 (≈ 0.0259 µM) | > 100 | > 100 | 0.39 (≈ 0.506 µM) | 0.78 (≈ 1.01 µM) | > 100 | 0.2 (≈ 0.259 µM) | MIC (M[…] ATCC 9341): 0.05 µg/mL (≈ 0.0649 µM); MIC (EN[…] ATCC 8043): 0.1 µg/mL (≈ 0.13 µM); MIC (STR[…] 508): 0.02 µg/mL (≈ 0.0259 µM); MIC (ESCHERICHIA COLI JUHL): 100 µg/mL (≈ 130 µM); MIC [15]: 0.39 µg/mL (≈ 0.506 µM); MIC [16]: > 100 µg/mL; MIC (ESCHERICHIA COLI DC-2): 100 µg/mL (≈ 130 µM); MIC [17]: 100 µg/mL (≈ 130 µM); MIC [18]: 0.78 µg/mL (≈ 1.01 µM); MIC [19]: 0.01 µg/mL (≈ 0.013 µM); MIC [20]: > 100 µg/mL; MIC [21]: 0.39 µg/mL (≈ 0.506 µM); MIC [22]: > 100 µg/mL |
